pIC50: −log10 of the molar value.

This assay deals with T1, recombinant human AKR1C3 (Homo sapiens, UniProt P42330).
T1 construct: GST (cleaved yes); made in house; host or cells: E. coli
T1 sequence (P42330 1-323): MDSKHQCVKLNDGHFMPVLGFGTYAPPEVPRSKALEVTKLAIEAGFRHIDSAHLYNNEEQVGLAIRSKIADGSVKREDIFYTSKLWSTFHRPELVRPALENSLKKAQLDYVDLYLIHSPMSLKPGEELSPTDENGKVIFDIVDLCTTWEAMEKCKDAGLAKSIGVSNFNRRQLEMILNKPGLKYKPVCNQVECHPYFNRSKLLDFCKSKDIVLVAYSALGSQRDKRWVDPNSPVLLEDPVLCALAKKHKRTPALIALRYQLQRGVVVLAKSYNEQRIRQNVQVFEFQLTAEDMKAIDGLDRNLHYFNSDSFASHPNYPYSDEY
The assay can be described thus: AKR1C3-inhibitory activity assay (Coumberone to Coumberol fluorescence). The class given is biochemical. Particulars: recombinant human AKR1C3, 10 μM NADPH, 0.3 μM Coumberone, 22° C., typically 90 min. The method, then:
AKR1C3-Inhibitory Activity Assay
The AKR1C3-inhibitory activity of the substances of the present invention was measured in the AKR1C3 assay described in the paragraphs below.
Essentially, the enzyme activity is measured by quantification of the generation of Coumberol from Coumberone (Halim et al. J. AM. CHEM. SOC. 2008, 130:14123-14128 and Yee et al. Proc. Natl. Acad. Sci. USA 2006, 103:13304-13309). In this test, the increase of the highly fluorescent Coumberol by NADPH- (nicotinamide adenine dinucleotide phosphate)-dependent reduction of the non-fluorescent Coumberone by AKR1C3 was determined.
The enzyme used was recombinant human AKR1C3 (Aldo-keto reductase family 1 member C3; GenBank Accession No. NM_003739). This was expressed in E. coli as GST (glutathione S transferase) fusion protein and purified by glutathione Sepharose affinity chromatography. The GST was removed by digestion with thrombin and subsequent size exclusion chromatography (Dufort, I., Rheault, P., Huang, X F., Soucy, P., and Luu-The, V., Endocrinology 140, 568-574 (1999)).
For the assay, 50 nI of a 100-fold concentrated solution of the test substance in DMSO were pipetted into a black low-volume 384-well microtiter plate (Greiner Bio-One, Frickenhausen, Germany), 2.5 μl of a solution of AKR1C3 in assay buffer [50 mM potassium phosphate buffer pH 7, 1 mM DTT, 0.0022% (w/v) Pluronic F-127, 0.01% BSA (w/v) and protease inhibitor cocktail (Complete, EDTA-free Protease Inhibitor Cocktail from Roche)] were added and the mixture was incubated for 15 min to allow pre-binding of the substances to the enzyme prior to the enzyme reaction. The enzyme reaction was then started by addition of 2.5 μl of a solution of NADPH (20 μM→final concentration in 5 μl of assay volume is 10 μM) and Coumberone (0.6 μM→final concentration in 5 μl of assay volume is 0.3 μM) in assay buffer, and the resulting mixture was incubated at 22° C. for the reaction time of typically 90 min. The concentration of the AKR1C3 and the reaction time was adapted to the respective activity of the enzyme preparation and adjusted such that the assay was carried out in the linear range. Typical AKR1C3 concentrations were in the region of 1 nM. The reaction was stopped by addition of 2.5 μl of a stop solution consisting of 3 μM EM-1404 as inhibitor (U.S. Pat. No. 6,541,463) in 50 mM HEPES pH7.5 (3 μM EM-1404→final concentration in 7.5 μl of assay volume is 1 μM). The fluorescence of the Coumberole was then measured at 520 nm (excitation at 380 nm) using a suitable measuring instrument (Pherastar from BMG Labtechnologies). The intensity of the fluorescence was used as a measure of the amount of Coumberole formed and thus of the enzyme activity of AKR1C3. The data were normalized (enzyme reaction without inhibitor=0% inhibition; all other assay components, but no enzyme=100% inhibition).
In general, pIC50 refers to −log10 of the IC50, conventionally taken in molar units. As to `Cc1ccc(S(=O)(=O)N2CCN(C(=O)c3cnn[nH]3)CC2(C)C)cc1` [Example 6, {3,3-dimethyl-4-[(4-methylphenyl)sulfonyl]piperazin-1-yl}(1H-1,2,3-triazol-5-yl)methanone], the pIC50 is 8.10.
To `Cc1ccc(S(=O)(=O)N2C[C@H](C)N(C(=O)c3cnn[nH]3)C[C@H]2C)cc1` [Example 1, {(2S,5R)-2,5-dimethyl-4-[(4-methylphenyl)sulfonyl]piperazin-1-yl}(1H-1,2,3-triazol-5-yl)methanone] belongs 8.22; to `C[C@@H]1CN(C(=O)c2cnn[nH]2)[C@@H](C)CN1S(=O)(=O)c1ccc(F)cc1F` [Example 2, {(2S,5R)-4-[(2,4-difluorophenyl)sulfonyl]-2,5-dimethylpiperazin-1-yl}(1H-1,2,3-triazol-5-yl)methanone], 8.52.
To `CC1(C)CN(C(=O)c2cnn[nH]2)CCN1S(=O)(=O)c1ccc(F)cc1F` [Example 8, {4-[(2,4-difluorophenyl)sulfonyl]-3,3-dimethylpiperazin-1-yl}(1H-1,2,3-triazol-5-yl)methanone] belongs 7.35; to `CC1(C)CN(C(=O)c2cnn[nH]2)CCN1S(=O)(=O)c1ccc(F)cc1Cl` [Example 9, {4-[(2-chloro-4-fluorophenyl)sulfonyl]-3,3-dimethylpiperazin-1-yl}(1H-1,2,3-triazol-5-yl)methanone], 7.96; to `Cc1ccc(S(=O)(=O)N2C[C@@H](C)N(C(=O)c3c[nH]nn3)[C@@H](C)C2)cc1` [Example 3, {(2R,6S)-2,6-dimethyl-4-[(4-methylphenyl)sulfonyl]piperazin-1-yl}(1H-1,2,3-triazol-4-yl)methanone], 7.62.
To `CCc1ccc(S(=O)(=O)N2CCN(C(=O)c3cnn[nH]3)CC2(C)C)cc1` [Example 7, {4-[(4-ethylphenyl)sulfonyl]-3,3-dimethylpiperazin-1-yl}(1H-1,2,3-triazol-5-yl)methanone] belongs 8.10.
In the case of `C[C@@H]1CN(S(=O)(=O)c2ccc(F)cc2F)C[C@H](C)N1C(=O)c1c[nH]nn1` [Example 4, {(2R,6S)-4-[(2,4-difluorophenyl)sulfonyl]-2,6-dimethylpiperazin-1-yl}(1H-1,2,3-triazol-4-yl)methanone], the pIC50 is 7.92.
Turning to `C[C@@H]1CN(S(=O)(=O)c2ccc(C(F)(F)F)cc2)C[C@H](C)N1C(=O)c1c[nH]nn1` [Example 5, [(2R,6S)-2,6-dimethyl-4-{[4-(trifluoromethyl)phenyl]sulfonyl}piperazin-1-yl](1H-1,2,3-triazol-4-yl)methanone], the pIC50 is 6.97.

These data come from US20200087284A1, “[4-(PHENYLSULFONYL)PIPERAZIN-1-YL](1H-1, 2, 3-TRIAZOL-4-YL)METHANONES” (priority 2016, published 2020).
